# Measurements published in ChEMBL document CHEMBL5724914, “Linking interpersonal differences in gut microbiota composition and drug biotransformation activity” (2024).
# Settings: human gut metagenome, 24 h, 2 µM
# Also: call rule not given here.
row,Bacterial Biotransformation,SMILES
1,Compound metabolized,Nc1nc2ccc(OC(F)(F)F)cc2s1 [RILUZOLE]
2,Compound NOT metabolized,CC(C)NCC(O)c1ccc(NS(C)(=O)=O)cc1 (stereo not given) [SOTALOL]

# Assay: (§1) The drug is tested on WLS-170 corresponding to human gut metagenome with ENA study accession number: PRJEB37062 and ENA sample accession number: ERS12561762 for biotransformation under anaerobic condition. The drug concentrations were measured over 9 timepoints collected between 0 and 24 hours of incubation by liquid-chromatography-coupled mass spectrometry (LC–MS)
# Settings: 2 µM
row,Bacterial Biotransformation,SMILES
1,Compound metabolized,Nc1nc2ccc(OC(F)(F)F)cc2s1 [RILUZOLE]
2,Compound metabolized,CC(C)NCC(O)c1ccc(NS(C)(=O)=O)cc1 (stereo not given) [SOTALOL]

# Settings: human gut metagenome, 24 h, 2 µM
# Remark: another data set of the same source
row,Bacterial Biotransformation,SMILES
1,Compound NOT metabolized,Nc1nc2ccc(OC(F)(F)F)cc2s1 [RILUZOLE]
2,Compound NOT metabolized,CC(C)NCC(O)c1ccc(NS(C)(=O)=O)cc1 (stereo not given) [SOTALOL]

# Assay: as §1, with “Z-030” for “WLS-170”, “mouse” for “human”, “ERS12561829” for “ERS12561762”
# Settings: 2 µM
row,Bacterial Biotransformation,SMILES
1,Compound NOT metabolized,Nc1nc2ccc(OC(F)(F)F)cc2s1 [RILUZOLE]
2,Compound NOT metabolized,CC(C)NCC(O)c1ccc(NS(C)(=O)=O)cc1 (stereo not given) [SOTALOL]

# Assay: as §1, with “Z-024” for “WLS-170”, “pig” for “human”, “ERS12561823” for “ERS12561762”
# Settings: 2 µM
row,Bacterial Biotransformation,SMILES
1,Compound metabolized,Nc1nc2ccc(OC(F)(F)F)cc2s1 [RILUZOLE]
2,Compound NOT metabolized,CC(C)NCC(O)c1ccc(NS(C)(=O)=O)cc1 (stereo not given) [SOTALOL]

# Assay: as §1, with “Z-001” for “WLS-170”, “mouse” for “human”, “ERS12561801” for “ERS12561762”
# Settings: 2 µM
row,Bacterial Biotransformation,SMILES
1,Compound metabolized,Nc1nc2ccc(OC(F)(F)F)cc2s1 [RILUZOLE]
2,Compound NOT metabolized,CC(C)NCC(O)c1ccc(NS(C)(=O)=O)cc1 (stereo not given) [SOTALOL]

# Settings: human gut metagenome, 24 h, 2 µM
# Remark: another data set of the same source
row,Bacterial Biotransformation,SMILES
1,Compound metabolized,Nc1nc2ccc(OC(F)(F)F)cc2s1 [RILUZOLE]
2,Compound NOT metabolized,CC(C)NCC(O)c1ccc(NS(C)(=O)=O)cc1 (stereo not given) [SOTALOL]

# Assay: as §1, with “Z-002” for “WLS-170”, “rabbit” for “human”, “ERS12561802” for “ERS12561762”
# Settings: 2 µM
row,Bacterial Biotransformation,SMILES
1,Compound metabolized,Nc1nc2ccc(OC(F)(F)F)cc2s1 [RILUZOLE]
2,Compound NOT metabolized,CC(C)NCC(O)c1ccc(NS(C)(=O)=O)cc1 (stereo not given) [SOTALOL]

# Assay: as §1, with “Z-027” for “WLS-170”, “to” for “to human gut”, “ERS12561826” for “ERS12561762”
# Settings: 2 µM
row,Bacterial Biotransformation,SMILES
1,Compound NOT metabolized,Nc1nc2ccc(OC(F)(F)F)cc2s1 [RILUZOLE]
2,Compound NOT metabolized,CC(C)NCC(O)c1ccc(NS(C)(=O)=O)cc1 (stereo not given) [SOTALOL]

# Assay: as §1, with “Z-028” for “WLS-170”, “mouse” for “human”, “ERS12561827” for “ERS12561762”
# Settings: 2 µM
row,Bacterial Biotransformation,SMILES
1,Compound NOT metabolized,Nc1nc2ccc(OC(F)(F)F)cc2s1 [RILUZOLE]
2,Compound NOT metabolized,CC(C)NCC(O)c1ccc(NS(C)(=O)=O)cc1 (stereo not given) [SOTALOL]

# Assay: as §1, with “Z-004” for “WLS-170”, “to” for “to human gut”, “ERS12561804” for “ERS12561762”
# Settings: 2 µM
row,Bacterial Biotransformation,SMILES
1,Compound metabolized,Nc1nc2ccc(OC(F)(F)F)cc2s1 [RILUZOLE]
2,Compound NOT metabolized,CC(C)NCC(O)c1ccc(NS(C)(=O)=O)cc1 (stereo not given) [SOTALOL]

# Assay: as §1, with “Z-010” for “WLS-170”, “to” for “to human gut”, “ERS12561810” for “ERS12561762”
# Settings: 2 µM
row,Bacterial Biotransformation,SMILES
1,Compound metabolized,Nc1nc2ccc(OC(F)(F)F)cc2s1 [RILUZOLE]
2,Compound NOT metabolized,CC(C)NCC(O)c1ccc(NS(C)(=O)=O)cc1 (stereo not given) [SOTALOL]

# Settings: human gut metagenome, 24 h, 2 µM
# Remark: another data set of the same source
row,Bacterial Biotransformation,SMILES
1,Compound metabolized,Nc1nc2ccc(OC(F)(F)F)cc2s1 [RILUZOLE]
2,Compound NOT metabolized,CC(C)NCC(O)c1ccc(NS(C)(=O)=O)cc1 (stereo not given) [SOTALOL]

# Assay: as §1, with “WLS-090” for “WLS-170”, “ERS12561753” for “ERS12561762”
# Settings: 2 µM
row,Bacterial Biotransformation,SMILES
1,Compound metabolized,Nc1nc2ccc(OC(F)(F)F)cc2s1 [RILUZOLE]
2,Compound metabolized,CC(C)NCC(O)c1ccc(NS(C)(=O)=O)cc1 (stereo not given) [SOTALOL]

# Settings: human gut metagenome, 24 h, 2 µM
# Remark: another data set of the same source
row,Bacterial Biotransformation,SMILES
1,Compound metabolized,Nc1nc2ccc(OC(F)(F)F)cc2s1 [RILUZOLE]
2,Compound NOT metabolized,CC(C)NCC(O)c1ccc(NS(C)(=O)=O)cc1 (stereo not given) [SOTALOL]

# Assay: as §1, with “WLS-370” for “WLS-170”, “ERS12561793” for “ERS12561762”
# Settings: 2 µM
row,Bacterial Biotransformation,SMILES
1,Compound metabolized,Nc1nc2ccc(OC(F)(F)F)cc2s1 [RILUZOLE]
2,Compound NOT metabolized,CC(C)NCC(O)c1ccc(NS(C)(=O)=O)cc1 (stereo not given) [SOTALOL]

# Settings: human gut metagenome, 24 h, 2 µM
# Remark: another data set of the same source
row,Bacterial Biotransformation,SMILES
1,Compound NOT metabolized,Nc1nc2ccc(OC(F)(F)F)cc2s1 [RILUZOLE]
2,Compound NOT metabolized,CC(C)NCC(O)c1ccc(NS(C)(=O)=O)cc1 (stereo not given) [SOTALOL]

# Settings: human gut metagenome, 24 h, 2 µM
# Remark: another data set of the same source
row,Bacterial Biotransformation,SMILES
1,Compound metabolized,Nc1nc2ccc(OC(F)(F)F)cc2s1 [RILUZOLE]
2,Compound NOT metabolized,CC(C)NCC(O)c1ccc(NS(C)(=O)=O)cc1 (stereo not given) [SOTALOL]

# Assay: as §1, with “Z-020” for “WLS-170”, “rabbit” for “human”, “ERS12561819” for “ERS12561762”
# Settings: 2 µM
row,Bacterial Biotransformation,SMILES
1,Compound metabolized,Nc1nc2ccc(OC(F)(F)F)cc2s1 [RILUZOLE]
2,Compound NOT metabolized,CC(C)NCC(O)c1ccc(NS(C)(=O)=O)cc1 (stereo not given) [SOTALOL]

# Assay: as §1, with “Z-026” for “WLS-170”, “to” for “to human gut”, “ERS12561825” for “ERS12561762”
# Settings: 2 µM
row,Bacterial Biotransformation,SMILES
1,Compound metabolized,Nc1nc2ccc(OC(F)(F)F)cc2s1 [RILUZOLE]
2,Compound NOT metabolized,CC(C)NCC(O)c1ccc(NS(C)(=O)=O)cc1 (stereo not given) [SOTALOL]
